Reference: the supplement of paper PMC10307832

compound: CC1(COc2ccc3c(c2)ncn3-c2ccc3cccc(N4CCC(N)CC4)c3n2)COC1 [Crenolanib] + COc1cccc2cc(-c3nc([C@H]4CC[C@H](C(=O)O)CC4)n4ncnc(N)c34)[nH]c12 [OSI-027] (partner 0.5 µM); assay: relative viability (nuclei count vs DMSO), 5 days (fraction); higher = more cells survive; details: first compound 1 µM
How it was run: (§1)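 Lung cancer cell lines in 1536-well plates were dosed by pin tool the day after seeding, either with one drug alone or with a fixed anchor-drug dose plus five library-drug doses (not always all listed) in √10 steps. After 5 days, cells were fixed and their nuclei stained in one step (final 0.05% Triton X-100, 1% formaldehyde, 1 ug/ml Hoechst), then counted on 4× images. Relative viability is the nuclei count in treated wells divided by that in vehicle wells. Values are medians of duplicate plates.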

Row | Cell Line | relative viability
1 | NCI-H1793 | 0.268
2 | PC-3 [JPC-3] | 0.719
3 | EKVX | 0.737
4 | LCLC-103H | 0.384
5 | NCI-H1650 | 0.46
6 | NCI-H1944 | 0.346
7 | NCI-H1993 | 0.592
8 | SK-LU-1 | 0.349
9 | ABC-1 | 0.45
10 | NCI-H358 | 0.565
11 | NCI-H661 | 0.776
12 | RERF-LC-KJ | 0.448

compound: CC1(COc2ccc3c(c2)ncn3-c2ccc3cccc(N4CCC(N)CC4)c3n2)COC1 [Crenolanib] + N=C(N)NC(=N)NCCc1ccccc1 [Phenformin] (partner 250 µM); assay: as above; details: first compound 0.01 µM
How it was run: as §1

Row | Cell Line | relative viability
13 | NCI-H650 | 0.468
14 | CAL-12T | 0.533
15 | NCI-H1666 | 0.56
16 | H3255 | 0.432
17 | NCI-H23 | 0.887
18 | NCI-H1915 | 0.359
19 | NCI-H1437 | 0.33
20 | NCI-H322M | 0.794
21 | NCI-H1792 | 0.185
22 | NCI-H2085 | 0.742
23 | HCC-366 | 0.612
24 | NCI-H1793 | 0.453
25 | PC-3 [JPC-3] | 0.487
26 | EKVX | 0.223
27 | LCLC-103H | 0.316
28 | NCI-H1650 | 0.527
29 | NCI-H1944 | 0.217
30 | NCI-H1993 | 0.486
31 | SK-LU-1 | 0.61
32 | ABC-1 | 0.21
33 | NCI-H358 | 0.372
34 | NCI-H661 | 0.284
35 | RERF-LC-KJ | 0.442

same assay, conditions: first compound 0.03162 µM

Row | Cell Line | relative viability
36 | NCI-H650 | 0.405
37 | CAL-12T | 0.575
38 | NCI-H1666 | 0.57
39 | H3255 | 0.326
40 | NCI-H23 | 0.855
41 | NCI-H1915 | 0.37
42 | NCI-H1437 | 0.316
43 | NCI-H322M | 0.802
44 | NCI-H1792 | 0.351
45 | NCI-H2085 | 0.745
46 | HCC-366 | 0.617
47 | NCI-H1793 | 0.38
48 | PC-3 [JPC-3] | 0.494
49 | EKVX | 0.224
50 | LCLC-103H | 0.329
51 | NCI-H1650 | 0.448
52 | NCI-H1944 | 0.222
53 | NCI-H1993 | 0.513
54 | SK-LU-1 | 0.545
55 | ABC-1 | 0.265
56 | NCI-H358 | 0.321
57 | NCI-H661 | 0.275
58 | RERF-LC-KJ | 0.44

same assay, conditions: first compound 0.1 µM

Row | Cell Line | relative viability
59 | NCI-H650 | 0.48
60 | CAL-12T | 0.545
61 | NCI-H1666 | 0.565
62 | H3255 | 0.386
63 | NCI-H23 | 0.753
64 | NCI-H1915 | 0.365
65 | NCI-H1437 | 0.301
66 | NCI-H322M | 0.755
67 | NCI-H1792 | 0.244
68 | NCI-H2085 | 0.63
69 | HCC-366 | 0.591
70 | NCI-H1793 | 0.376
71 | PC-3 [JPC-3] | 0.46
72 | EKVX | 0.24
73 | LCLC-103H | 0.295
74 | NCI-H1650 | 0.431
75 | NCI-H1944 | 0.221
76 | NCI-H1993 | 0.493
77 | SK-LU-1 | 0.39
78 | ABC-1 | 0.22
79 | NCI-H358 | 0.3
80 | NCI-H661 | 0.289
81 | RERF-LC-KJ | 0.423

same assay, conditions: first compound 0.3162 µM

Row | Cell Line | relative viability
82 | NCI-H650 | 0.445
83 | CAL-12T | 0.598
84 | NCI-H1666 | 0.557
85 | H3255 | 0.321
86 | NCI-H23 | 0.841
87 | NCI-H1915 | 0.386
88 | NCI-H1437 | 0.31
89 | NCI-H322M | 0.835
90 | NCI-H1792 | 0.282
91 | NCI-H2085 | 0.7
92 | HCC-366 | 0.557
93 | NCI-H1793 | 0.288
94 | PC-3 [JPC-3] | 0.474
95 | EKVX | 0.241
96 | LCLC-103H | 0.34
97 | NCI-H1650 | 0.383
98 | NCI-H1944 | 0.202
99 | NCI-H1993 | 0.533
100 | SK-LU-1 | 0.514
101 | ABC-1 | 0.261
102 | NCI-H358 | 0.292
103 | NCI-H661 | 0.283
104 | RERF-LC-KJ | 0.463

same assay, conditions: first compound 1 µM

Row | Cell Line | relative viability
105 | NCI-H650 | 0.445
106 | CAL-12T | 0.538
107 | NCI-H1666 | 0.541
108 | H3255 | 0.35
109 | NCI-H23 | 0.669
110 | NCI-H1915 | 0.398
111 | NCI-H1437 | 0.29
112 | NCI-H322M | 0.803
113 | NCI-H1792 | 0.317
114 | NCI-H2085 | 0.631
115 | HCC-366 | 0.587
116 | NCI-H1793 | 0.364
117 | PC-3 [JPC-3] | 0.458
118 | EKVX | 0.23
119 | LCLC-103H | 0.352
120 | NCI-H1650 | 0.353
121 | NCI-H1944 | 0.177
122 | NCI-H1993 | 0.499
123 | SK-LU-1 | 0.517
124 | ABC-1 | 0.257
125 | NCI-H358 | 0.239
126 | NCI-H661 | 0.289
127 | RERF-LC-KJ | 0.446

compound: O=C1NC(=O)[C@@H](c2cn3c4c(cccc24)CCC3)[C@@H]1c1c[nH]c2ccccc12 [Tivantinib] + N=C(N)NC(=N)NCCc1ccccc1 [Phenformin] (partner 250 µM); assay: as above; details: first compound 0.01 µM
How it was run: as §1

Row | Cell Line | relative viability
128 | NCI-H650 | 0.47
129 | CAL-12T | 0.639
130 | NCI-H1666 | 0.566
131 | H3255 | 0.315
132 | NCI-H23 | 0.732
133 | NCI-H1915 | 0.362
134 | NCI-H1437 | 0.3
135 | NCI-H322M | 0.753
136 | NCI-H1792 | 0.396
137 | NCI-H2085 | 0.774
138 | HCC-366 | 0.63
139 | NCI-H1793 | 0.347
140 | PC-3 [JPC-3] | 0.459
141 | EKVX | 0.218
142 | LCLC-103H | 0.327
143 | NCI-H1650 | 0.438
144 | NCI-H1944 | 0.189
145 | NCI-H1993 | 0.446
146 | SK-LU-1 | 0.536
147 | ABC-1 | 0.23
148 | NCI-H358 | 0.339
149 | NCI-H661 | 0.288
150 | RERF-LC-KJ | 0.454

same assay, conditions: first compound 0.03162 µM

Row | Cell Line | relative viability
151 | NCI-H650 | 0.387
152 | CAL-12T | 0.529
153 | NCI-H1666 | 0.576
154 | H3255 | 0.357
155 | NCI-H23 | 0.886
156 | NCI-H1915 | 0.354
157 | NCI-H1437 | 0.278
158 | NCI-H322M | 0.708
159 | NCI-H1792 | 0.567
160 | NCI-H2085 | 0.639
161 | HCC-366 | 0.637
162 | NCI-H1793 | 0.388
163 | PC-3 [JPC-3] | 0.494
164 | EKVX | 0.256
165 | LCLC-103H | 0.312
166 | NCI-H1650 | 0.352
167 | NCI-H1944 | 0.179
168 | NCI-H1993 | 0.503
169 | SK-LU-1 | 0.539
170 | ABC-1 | 0.246
171 | NCI-H358 | 0.327
172 | NCI-H661 | 0.281
173 | RERF-LC-KJ | 0.442

same assay, conditions: first compound 0.1 µM

Row | Cell Line | relative viability
174 | NCI-H650 | 0.448
175 | CAL-12T | 0.582
176 | NCI-H1666 | 0.531
177 | H3255 | 0.355
178 | NCI-H23 | 0.749
179 | NCI-H1915 | 0.367
180 | NCI-H1437 | 0.275
181 | NCI-H322M | 0.754
182 | NCI-H1792 | 0.297
183 | NCI-H2085 | 0.699
184 | HCC-366 | 0.598
185 | NCI-H1793 | 0.371
186 | PC-3 [JPC-3] | 0.506
187 | EKVX | 0.243
188 | LCLC-103H | 0.378
189 | NCI-H1650 | 0.416
190 | NCI-H1944 | 0.192
191 | NCI-H1993 | 0.514
192 | SK-LU-1 | 0.497
193 | ABC-1 | 0.201
194 | NCI-H358 | 0.282
195 | NCI-H661 | 0.404
196 | RERF-LC-KJ | 0.407

same assay, conditions: first compound 0.3162 µM

Row | Cell Line | relative viability
197 | NCI-H650 | 0.479
198 | CAL-12T | 0.259
199 | NCI-H1666 | 0.552
200 | NCI-H23 | 0.792
201 | NCI-H1915 | 0.378
202 | NCI-H1437 | 0.351
203 | NCI-H1792 | 0.492
204 | NCI-H2085 | 0.519
205 | HCC-366 | 0.635
206 | NCI-H1793 | 0.213
207 | PC-3 [JPC-3] | 0.355
208 | LCLC-103H | 0.374
209 | NCI-H1650 | 0.32
210 | NCI-H1944 | 0.228
211 | NCI-H1993 | 0.605
212 | SK-LU-1 | 0.601
213 | ABC-1 | 0.228
214 | NCI-H358 | 0.189
215 | NCI-H661 | 0.271
216 | RERF-LC-KJ | 0.335
